Measurements published in US20260327250A1, “3-ETHYLAMINO-INDOLE DIMERS AS SEROTONERGIC AGENTS USEFUL FOR THE TREATMENT OF DISORDERS RELATED THERETO” (MINDSET PHARMA INC., priority 2022, published 2026).
Counter-ions that a name gives are not always drawn. Like-named read-outs stand apart in the source and are kept apart here.

Columns and labels:
human 5-HT1A receptor = target: T1, human 5-HT1A receptor (Homo sapiens, UniProt P08908); assay: Human 5-HT1A radioligand binding assay ([3H]-8-Hydroxy-DPAT)
T1 sequence (P08908 1-422): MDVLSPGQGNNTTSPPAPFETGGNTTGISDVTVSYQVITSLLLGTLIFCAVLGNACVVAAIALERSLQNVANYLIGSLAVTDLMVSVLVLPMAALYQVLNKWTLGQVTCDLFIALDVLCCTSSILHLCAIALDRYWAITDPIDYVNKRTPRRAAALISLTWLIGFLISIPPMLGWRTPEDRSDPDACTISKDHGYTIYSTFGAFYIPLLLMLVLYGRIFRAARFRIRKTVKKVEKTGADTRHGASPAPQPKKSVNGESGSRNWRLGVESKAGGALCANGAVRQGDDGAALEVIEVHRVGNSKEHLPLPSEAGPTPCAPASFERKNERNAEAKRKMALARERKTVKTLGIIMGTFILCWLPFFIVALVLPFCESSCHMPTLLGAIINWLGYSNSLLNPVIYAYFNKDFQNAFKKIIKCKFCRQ
Method: The objective of this study was to evaluate the binding properties of test compounds on 5-hydroxytryptamine receptor 1A.
(§1) • 1. The assay buffer was prepared following the table below.
pH was adjusted to 7.4 followed by […] sterile filtration • 1. 8 doses of reference and test compounds were prepared starting from 10 mM stock solution as required by 5-fold serial dilutions with 100% (v/v) DMSO. • 2. UniFilter-96 GF/B Plate was Pretreated: • i. 50 μl/well of 0.5% (v/v) PEI was added to UniFilter-96 GF/B plates. The plates were sealed and incubated at 4° C. for 3 hrs. • ii. After incubation, the plates were washed 3 times with ice-cold wash buffer (50 mM Tris, pH7.4).
• i. Cell membrane was diluted with assay buffer and 100 μl/well was added to 96 round well plates to reach a concentration of 20 μg/well. • ii. 8 concentrations of reference or test compounds were prepared and 50 μl/well was added to 96 round deep well plates. • iii. [3H]-8-Hydroxy-DPAT was diluted with assay buffer to 2 nM (4× final concentration) and 50 μl/well was added to 96 round well plates. • 4. The plate was centrifuged at 1000 rpm for 30 secs and then agitated at 600 rpm, R.T. for 5 min. • 5. The plates were sealed and the plate was incubated at 27° C. for 90 min. • 6. The incubation was stopped by vacuum filtration onto GF/B filter plates followed by 4 times washing with ice-cold wash buffer (50 mM Tris, pH7.4). • 7. The plates were dried at 37° C. for 45 min. • 8. The filter plates were sealed and 40 μl/well of scintillation cocktail was added. • 9. The plate was read by using a Microbeta^2 microplate counter.
• 1. For reference and test compounds, the results were expressed as % Inhibition, using the normalization equation: N=100-100×(U−C2)/(C1−C2), where U is the unknown value, C1 is the average of high controls, and C2 is the average of low controls. • 2. The IC50 was determined by fitting percentage of inhibition as a […] of compound concentrations with Hill equation using XLfit. Results and Discussion

human 5-HT2A receptor = human 5-HT2A receptor (Homo sapiens, UniProt P28223); assay: Human 5-HT2A radioligand binding assay ([3H]-ketanserin)
Method: The objective of this study was to evaluate the binding properties of exemplary compounds of Formula I on 5-hydroxytryptamine receptor 2A (5-HT2A).
as §1
UniFilter-96 GF/B plate was pretreated: • i. 50 μl/well of 0.5% (v/v) PEI was added to UniFilter-96 GF/C plates. The plates were sealed and incubated at 4° C. for 3 hrs. • ii. After incubation, the plates were washed 3 times with ice-cold wash buffer (50 mM Tris, pH7.4). • 4. […] Cell membrane was diluted with assay buffer and 330 μl/well was added to 96 round deep well plates to reach a concentration of 20 μg/well. • ii. 8 concentrations of reference or test compounds were prepared and 110 μl/well was added to 96 round deep well plates. • iii. […] The plate was centrifuged at 1000 rpm for 30 secs and then agitated at 600 rpm, R.T. for 5 min. • 6. […] The filter plates were sealed and 40 μl/well of scintillation cocktail was added. • 10. The plate was read by using a Microbeta^2 microplate counter.
• 1. […] The IC50 was determined by fitting percentage of inhibition as a function of compound concentrations with Hill equation using XLfit.

in vitro [1] = settings: rat, microsomes
Method: (§2) The concentrations of parent compounds in reaction systems were evaluated by LC-MS/MS for estimating the stability in pooled human, male rat and male mouse liver microsomes. The in vitro intrinsic clearances of test compounds were determined as well. Protocol
(§3) A master solution in the “Incubation Plate” containing phosphate buffer, ultra-pure H2O, MgCl2 solution and liver microsomes was made according to Table 6. The mixture was pre-warmed at 37° C. water bath for 5 minutes.
(§4) The reaction was started with the addition of 4 μL of 200 μM exemplary test compounds of the application or control compounds to each master solution to get the final concentration of 2 μM. This study was performed in duplicate.
(§5) Aliquots of 50 μL were taken from the reaction solution at 0, 15, 30, 45 and 60 minutes. The reaction solutions were stopped by the addition of 4 volumes of cold methanol with IS (100 nM alprazolam, 200 nM imipramine, 200 nM labetalol and 2 μM ketoprofen). Samples were centrifuged at 3,220 g for 40 minutes. Aliquot of 90 μL of the supernatant was mixed with 90 μL of ultra-pure H2O and then was used for LC-MS/MS analysis.
(§6) All calculations were carried out using Microsoft Excel. Peak area ratios of test compound to internal standard (listed in the below table) were determined from extracted ion chromatograms.
(§7) All calculations were carried out using Microsoft Excel. Peak areas were determined from extracted ion chromatograms. The slope value, k, was determined by linear regression of the natural logarithm of the remaining percentage of the parent drug vs. incubation time curve.
(§8) The in vitro half-life (in vitro t½) was determined from the slope value:
(§9) Conversion of the in vitro t½ (min) into the in vitro intrinsic clearance (in vitro CLint, in μL/min/mg proteins) was done using the following equation (mean of duplicate determinations):

in vitro [2] = settings: human, microsomes
Method: as §2, §3, §4, §5, §6, §7, §8, §9

[3] = [3H]-8-Hydroxy-DPAT, 27° C., 90 min, read-out: h5-HT1A, IC50
[4] = [3H]-ketanserin, 27° C., 90 min, read-out: h5-HT2A, IC50
[5] = Remaining Percentage after 60 min, human liver microsomes, with cofactors

Sequence of human 5-HT2A receptor (P28223 whole entry): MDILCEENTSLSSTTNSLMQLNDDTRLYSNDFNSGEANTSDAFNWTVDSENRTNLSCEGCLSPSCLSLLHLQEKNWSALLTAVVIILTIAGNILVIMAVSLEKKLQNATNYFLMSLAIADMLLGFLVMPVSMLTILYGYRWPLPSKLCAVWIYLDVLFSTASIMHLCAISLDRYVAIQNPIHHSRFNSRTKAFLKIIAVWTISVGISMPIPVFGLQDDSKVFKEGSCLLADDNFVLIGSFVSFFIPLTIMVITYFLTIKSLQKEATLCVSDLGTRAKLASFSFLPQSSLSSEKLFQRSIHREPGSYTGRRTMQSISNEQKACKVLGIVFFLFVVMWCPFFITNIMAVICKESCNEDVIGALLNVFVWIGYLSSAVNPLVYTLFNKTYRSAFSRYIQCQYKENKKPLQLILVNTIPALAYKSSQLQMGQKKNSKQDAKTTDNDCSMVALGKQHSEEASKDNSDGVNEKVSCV

Row | SMILES | IC50 (human 5-HT1A receptor; [3]) [µM] | IC50 (human 5-HT2A receptor; [4]) [nM] | half-life at 2 µM (in vitro [1]) [min] | microsomal CLint at 2 µM (in vitro [1]) [µL/min/mg] | remaining at 1 h, 2 µM (in vitro [1]) [%] | half-life at 2 µM (in vitro [2]) [min] | microsomal CLint at 2 µM (in vitro [2]) [µL/min/mg] | remaining at 1 h, 2 µM (in vitro [2]) [%] | IC50 (human 5-HT2A receptor) [nM] | IC50 (human 5-HT1A receptor) [µM] | remaining at 1 h, 2 µM (in vitro [2]; [5]) [%] | remaining at 1 h, 2 µM (in vitro [2]; Remaining Percentage after 60 min, human liver microsomes, without cofactors) [%]
1 | CN(C)CCc1c[nH]c2cccc(OP(=O)(O)O)c12 [Psilocybin] | 4.79 |  |  |  |  |  |  |  |  |  |  | 
2 | CC(C)N(CCc1c[nH]c2cccc(O)c12)C(C)C [Compound 7] | 4.69 | 6410 |  |  |  |  |  |  |  |  |  | 
3 | CC(C)N(CCc1c[nH]c2cccc(OC(=O)CCCC(=O)Oc3cccc4[nH]cc(CCN(C(C)C)C(C)C)c34)c12)C(C)C [Compound I-37, Bis(3-(2-(diisopropylamino)ethyl)-1H-indol-4-yl) glutarate dihydrochloride] |  |  | < 4.51 | > 307 | 0 | < 4.51 | > 307 | 0 | 547 | 3.96 |  | 
4 | CN(C)CCc1c[nH]c2cccc(O)c12 [Psilocin, 4-hydroxy-N,N-dimethyltryptamine, reference compound] |  |  |  |  | 62.7 |  |  |  |  |  | 70.2 | 
5 | CN(C)CCc1c[nH]c2cccc(OC(=O)CCCC(=O)Oc3cccc4[nH]cc(CCN(C)C)c34)c12 [Compound I-24, Bis(3-(2-(dimethylamino)ethyl)-1H-indol-4-yl) glutarate] | 0.336 | 127 | < 4.51 | > 307 | 0 | 4.94 | 281 |  |  |  | 0 | 1.08
